Data taken from US12162959B2, “Cyclic peptide for treating cancer” (Saint Leo University, priority 2018, dated 2024).
pIC50: −log10 of the molar value. Where a SMILES comes first, the peptide text is derived from it.

Tests used:
[1] = system: Human recombinant CMG helicase; assay: In vitro CMG helicase activity assay with Y-shaped oligonucleotide substrate; type: biochemical; conditions: about 5 nM CMG helicase, 1.0, 2.0 or 5.0 nM peptide, 0.5 mM ATP, 37° C. 45 minutes; FIG. 1A/1B
Experimental: Human recombinant CMG helicase was co-incubated with Peptide 7N (amide cyclic of SEQ ID NO: 1) peptide in the 1-5 nM range and subjected to an in vitro activity assay with Y-shaped oligonucleotides as a substrate.
About 5 nM of CMG helicase was pre-incubated with 1.0, 2.0, or 5.0 nM of Peptide 7N peptide for 20 minutes on ice. In vitro helicase reactions containing partially annealed Y-shaped oligonucleotides as substrate were fired by the addition of 0.5 mM ATP as described previously (Kang Y H et al. PNAS, 2012, 109(16), p. 6042-6047). Reactions were incubated at 37° C. for 45 minutes, stopped with 4 μL of 6× stop solution, and separated by 10% PAGE. To visualize DNA bands, the gel was stained using SYBR Gold nucleic acid stain. Densities of single-stranded DNA bands were quantified by using Image Lab software, and normalized against control.

[2] = system: BT-549 cells
Experimental: (§1) Breast adenocarcinoma (MDA-MB468), ductal carcinoma (BT-549), and primary mammary epithelial (HMEC) cells were transfected with 1.25 μM, 2.5 μM, 5.0 μM, or 20.0 μM of peptide 7N by using Pierce Protein Transfection reagent. Cells were incubated post-transfection for a duration of two doubling periods and assessed for viability by using a cell proliferetion CCK-8 assay.
(§2) IC50 values were calculated form obtained equations that describe cell viability as a function of peptide concentration.

[3] = system: hTERT-HPNE immortalized normal pancreatic cells
Experimental: (§3) Cells were incubated post-transfection for a duration of two doubling periods and assessed for viability by using a cell proliferetion CCK-8 assay.
as §2

[4] = system: SW480 cells
Experimental: (§4) Colorectal adenocarcinoma cells (SW480 and SW620) were transfected with 1.25 μM, 2.5 μM, 5.0 μM, or 20.0 μM of peptide 7N by using Pierce Protein Transfection reagent. Cells were incubated post-transfection for a duration of two doubling periods and assessed for viability by using a cell proliferetion CCK-8 assay.
as §2

[5] = system: PANC-1 cells
Experimental: as §3, §2

[6] = system: H596 cells
Experimental: as §3, §2

[7] = system: NTERA-2 cells
Experimental: Pierce Protein Transfection reagent (Thermo Scientific, 89850) was used to deliver peptide to the cultured cells. Transfected cells were allowed to go through two division cycles (48 hours) port-transfection, after which amounts of alive cells were determined by using a colorimetric CCK-8 assay (Dojindo Molecular Technologies, Inc.).
Human embryonal testicular carcinoma cells (NTERA-2 from ATCC #CRL-1973) were transfected with 1-10 μM Peptide 7N for 4.0 hours, incubated in a complete media for 48 hours, and assessed for viability by using a CCK-8 colorimetric assay.
as §2

[8] = system: MRC-9 normal embryonic lung fibroblasts
Experimental: as §3, §2

[9] = system: Hs 766T cells
Experimental: as §3, §2

[10] = system: HMEC primary mammary epithelial cells
Experimental: as §1, §2

[11] = system: Hep3B cells
Experimental: (§5) Hepatocellular carcinoma (Hep3B and Hep-G2) and immortalized normal liver (THLE-3) cells were transfected with 1.25 μM, 2.5 μM, 5.0 μM, or 20.0 μM of peptide 7N by using Pierce Protein Transfection reagent. Cells were incubated post-transfection for a duration of two doubling periods and assessed for viability by using a cell proliferetion CCK-8 assay.
as §2

[12] = system: Hep-G2 cells
Experimental: as §5, §2

[13] = system: M059K cells
Experimental: as §3, §2

[14] = system: SVG p12 immortalized normal astroglia cells
Experimental: as §3, §2

[15] = system: SW620 cells
Experimental: as §4, §2

[16] = system: M059J cells
Experimental: as §3, §2

[17] = system: HLF-a cells
Experimental: as §3, §2

[18] = system: MDA-MB468 cells
Experimental: as §1, §2

[19] = system: THLE-3 immortalized normal liver cells
Experimental: as §5, §2

## CSCC[C@@H]1NC(=O)[C@H](CCC(N)=O)NC(=O)[C@H](CC(C)C)NC(=O)[C@H](C(C)C)NC(=O)[C@H](CCC(=O)O)NC(=O)CNC(=O)[C@H](CCCCN)NC(=O)[C@H](C(C)C)NC(=O)[C@H](CC(C)C)NC(=O)[C@H](CC(=O)O)NC(=O)[C@H](CC(=O)O)NC(=O)[C@H](CCC(=O)O)NC1=O [Peptide 7N, Lys-Gly-Glu-Val-Leu-Gln-Met-Glu-Asp-Asp-Leu-Val] (cyclo(KGEVLQMEDDLV))
[1]
  Inhibition of CMG helicase (density of single-stranded DNA bands normalized against control): inhibited CMG helicase in a robust dose-dependent manner
[2]
  pIC50: 4.74
[2]; BT-549, 1.25-20.0 μM peptide, CCK-8, FIG. 7
  Proliferation of breast cancer cells (result in words): decreases proliferation
[3]
  pIC50: 2.98
[3]; hTERT-HPNE, 1.25-20.0 μM peptide, CCK-8, FIG. 5
  Effect on immortalized normal pancreatic cells (result in words): sparing
[4]
  pIC50: 4.66
[4]; SW480, 1.25-20.0 μM peptide, CCK-8, FIG. 8
  Proliferation of colorectal cancer cells (result in words): decreased proliferation
[5]
  pIC50: 4.61
[5]; PANC-1, 1.25-20.0 μM peptide, CCK-8, FIG. 5
  Proliferation of pancreatic carcinoma cells (result in words): decreased proliferation
[6]
  pIC50: 4.91
[6]; H596, 1.25-20.0 μM peptide, CCK-8, FIG. 3
  Proliferation of lung carcinoma cells (result in words): decreased proliferation
[7]; 48 h
  pIC50: 5.15
[7]; transfected with 1-10 μM peptide for 4.0 hours, 48 hours in complete media, CCK-8, FIG. 2
  Proliferation/viability of NTERA-2 cells: effectively inhibited proliferation
[8]
  pIC50: 3.79
[8]; MRC-9, 1.25-20.0 μM peptide, CCK-8, FIG. 3
  Effect on normal lung fibroblasts (result in words): sparing
[9]
  pIC50: 4.74
[9]; Hs 766T, 1.25-20.0 μM peptide, CCK-8, FIG. 5
  Proliferation of pancreatic carcinoma cells (result in words): decreased proliferation
[10]
  pIC50: 3.87
[10]; HMEC, 1.25-20.0 μM peptide, CCK-8, FIG. 7
  Effect on normal mammary epithelial cells (result in words): sparing
[11]
  pIC50: 4.85
[11]; Hep3B, 1.25-20.0 μM peptide, CCK-8, FIG. 4
  Proliferation of liver carcinoma cells (result in words): decreased proliferation
[12]
  pIC50: 4.78
[12]; Hep-G2, 1.25-20.0 μM peptide, CCK-8, FIG. 4
  Proliferation of liver carcinoma cells (result in words): decreased proliferation
[13]
  pIC50: 4.79
[13]; M059K, 1.25-20.0 μM peptide, CCK-8, FIG. 6
  Proliferation of brain glioma cells (result in words): decreased proliferation
[14]
  pIC50: 3.57
[14]; SVG p12, 1.25-20.0 μM peptide, CCK-8, FIG. 6
  Effect on immortalized normal astroglia cells (result in words): sparing
[15]
  pIC50: 4.66
[15]; SW620, 1.25-20.0 μM peptide, CCK-8, FIG. 8
  Proliferation of colorectal cancer cells (result in words): decreased proliferation
[16]
  pIC50: 4.81
[16]; M059J, 1.25-20.0 μM peptide, CCK-8, FIG. 6
  Proliferation of brain glioma cells (result in words): decreased proliferation
[17]
  pIC50: 4.84
[17]; HLF-a, 1.25-20.0 μM peptide, CCK-8, FIG. 3
  Proliferation of lung carcinoma cells (result in words): decreased proliferation
[18]
  pIC50: 4.77
[18]; MDA-MB468, 1.25-20.0 μM peptide, CCK-8, FIG. 7
  Proliferation of breast cancer cells (result in words): decreases proliferation
[19]
  pIC50: 3.14
[19]; THLE-3, 1.25-20.0 μM peptide, CCK-8, FIG. 4
  Effect on immortalized normal liver cells (result in words): sparing
